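Interpolation was linear, between the two tested concentrations surrounding the appropriate level; five concentrations were tested over 48 hours in 96-well plates. Abbreviation: GI50, concentration required for 50% inhibition of growth.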 The source made the active and inactive calls. Rule as the data show it: active = GI50 up to about 1.1 µM and inactive = higher.
Tests used:
Assay in all cases: inhibition of tumour cell growth, NCI panel, 48 h
HOP-92 = test system: HOP-92
SK-OV-3 = test system: SK-OV-3
OVCAR-8 = test system: OVCAR-8
SW-620 = test system: SW-620
UACC-62 = test system: UACC-62
TK-10 = test system: TK-10
NCI-H522 = test system: NCI-H522
MOLT-4 = test system: MOLT-4
M14 = test system: M14
SNB-75 = test system: SNB-75
COLO 205 = test system: COLO 205
786-0 = test system: 786-0
HCT-116 = test system: HCT-116
SF-295 = test system: SF-295
A498 = test system: A498
RXF 393 = test system: RXF 393
Malme-3M = test system: Malme-3M
SNB-19 = test system: SNB-19

| Compound | GI50 (HOP-92) | GI50 (SK-OV-3) | GI50 (OVCAR-8) | GI50 (SW-620) | GI50 (UACC-62) | GI50 (TK-10) | GI50 (NCI-H522) | GI50 (MOLT-4) | GI50 (M14) | GI50 (SNB-75) | GI50 (COLO 205) | GI50 (786-0) | GI50 (HCT-116) | GI50 (SF-295) | GI50 (A498) | GI50 (RXF 393) | GI50 (Malme-3M) | GI50 (SNB-19) |
| --- | --- | --- | --- | --- | --- | --- | --- | --- | --- | --- | --- | --- | --- | --- | --- | --- | --- | --- |
| c1ccc2c(CNCCCCCCCCNCc3cccc4ccccc34)cccc2c1 | 2.49 µM (inactive) | 17.1 µM (inactive) | 1.86 µM (inactive) | 1.8 µM (inactive) | 1.8 µM (inactive) | 1.66 µM (inactive) | 1.79 µM (inactive) | 2.02 µM (inactive) | 1.75 µM (inactive) | 1.9 µM (inactive) | 1.96 µM (inactive) | 1.73 µM (inactive) | 1.67 µM (inactive) | 1.88 µM (inactive) | 14.7 µM (inactive) | 1.74 µM (inactive) | 1.95 µM (inactive) | – |
| CCCCCCCCCCCCCP(=O)(O)OCC | > 100 µM (inactive) | – | > 100 µM (inactive) | > 100 µM (inactive) | > 100 µM (inactive) | > 100 µM (inactive) | > 100 µM (inactive) | – | > 100 µM (inactive) | > 100 µM (inactive) | > 100 µM (inactive) | > 100 µM (inactive) | > 100 µM (inactive) | > 100 µM (inactive) | > 100 µM (inactive) | > 100 µM (inactive) | > 100 µM (inactive) | > 100 µM (inactive) |
| O=C(O)Cn1c(=O)[nH]c(=O)c2c1ncn2Cc1ccccc1 | > 100 µM (inactive) | > 100 µM (inactive) | > 100 µM (inactive) | > 100 µM (inactive) | > 100 µM (inactive) | > 100 µM (inactive) | > 100 µM (inactive) | > 100 µM (inactive) | > 100 µM (inactive) | > 100 µM (inactive) | > 100 µM (inactive) | > 100 µM (inactive) | > 100 µM (inactive) | – | > 100 µM (inactive) | – | > 100 µM (inactive) | > 100 µM (inactive) |
| O=C(c1ccccc1)C1OC12C(=O)Nc1ccccc12 (stereo not drawn) | 20.3 µM (inactive) | 35.6 µM (inactive) | 32.5 µM (inactive) | 21.4 µM (inactive) | 40.7 µM (inactive) | 40.3 µM (inactive) | 13.3 µM (inactive) | 8.15 µM (inactive) | 21.8 µM (inactive) | 15.2 µM (inactive) | 18 µM (inactive) | 45.7 µM (inactive) | 36.2 µM (inactive) | 27 µM (inactive) | 73.1 µM (inactive) | 20.9 µM (inactive) | 29.6 µM (inactive) | 37.3 µM (inactive) |
| O=C1[C@@H]2C(c3ccccc3F)=NO[C@@H]2C(=O)N1c1ccc(Cc2ccc(N3C(=O)[C@H]4C(c5ccccc5F)=NO[C@H]4C3=O)cc2)cc1 | 34.4 µM (inactive) | > 100 µM (inactive) | > 100 µM (inactive) | > 75.7 µM (inactive) | > 100 µM (inactive) | > 31.6 µM (inactive) | > 100 µM (inactive) | 19.6 µM (inactive) | > 100 µM (inactive) | > 100 µM (inactive) | > 100 µM (inactive) | > 100 µM (inactive) | > 100 µM (inactive) | > 100 µM (inactive) | > 100 µM (inactive) | > 43.7 µM (inactive) | > 100 µM (inactive) | > 100 µM (inactive) |
| CCOC(=O)CCn1ncc(Cl)c(Cl)c1=O | 11.9 µM (inactive) | 26.7 µM (inactive) | 5.98 µM (inactive) | 3.31 µM (inactive) | 6.3 µM (inactive) | 17.9 µM (inactive) | 0.291 µM (active) | 3.13 µM (inactive) | 4.21 µM (inactive) | 14.8 µM (inactive) | 9.23 µM (inactive) | 14.3 µM (inactive) | 11.9 µM (inactive) | 19.5 µM (inactive) | 22.7 µM (inactive) | 11.4 µM (inactive) | 14.2 µM (inactive) | 13.5 µM (inactive) |
| COc1nc(/C=N/NC(N)=S)nc(OC)n1 | > 100 µM (inactive) | > 100 µM (inactive) | 56.9 µM (inactive) | > 100 µM (inactive) | 35.3 µM (inactive) | > 100 µM (inactive) | 75.5 µM (inactive) | 56.8 µM (inactive) | 55.1 µM (inactive) | 32.7 µM (inactive) | > 100 µM (inactive) | 58.3 µM (inactive) | 64.4 µM (inactive) | 42.3 µM (inactive) | 33.7 µM (inactive) | > 100 µM (inactive) | 72.1 µM (inactive) | > 100 µM (inactive) |
| Cc1cc(N(CCC#N)CCC#N)ccc1/C=C1\N=C(c2cc([N+](=O)[O-])ccc2Cl)N(c2cccc(Cl)c2)C1=O | > 100 µM (inactive) | > 100 µM (inactive) | > 100 µM (inactive) | < 0.01 µM (active) | > 100 µM (inactive) | > 100 µM (inactive) | 58.6 µM (inactive) | 79.6 µM (inactive) | > 100 µM (inactive) | > 100 µM (inactive) | 87.7 µM (inactive) | > 100 µM (inactive) | > 100 µM (inactive) | > 100 µM (inactive) | > 100 µM (inactive) | – | > 100 µM (inactive) | < 0.01 µM (active) |
